Values of other authors in patent publication US20220280463A1, “PHARMACEUTICAL FORMULATIONS COMPRISING DICLOFENAC” (FTF PHARMA PRIVATE LIMITED, priority 2019, published 2022).

Tested on: erythrocytes
Settings: aqueous solution of 2% propylene glycol, in 45 min

**Q.** For `CC(O)CO` (stereo not shown) [propylene glycol], which haemolysis of erythrocytes is on record?
**A.** Its haemolysis of erythrocytes is 100%.
